Assays:
Assay in all cases: IRES screening, Gaussia luciferase from LNP-oRNA (Table 27)
Settings in all cases: Gaussia luciferase luminescence in supernatant 48 hours after LNP-oRNA transfection, normalized to control (caprine kobuvirus IRES)
[1] = test system: primary human skeletal myotubes
[2] = test system: primary human hepatocytes
[3] = test system: activated primary human T cells

In the case of CCCCCCCCC(CC)OC(=O)CCCCCCCN(CCCCCCCC(=O)OC(CCCCCCCC)CCCCCCCC)CCCn1ccnc1C (stereo not drawn) [Lipid 10a-138], the “[Mod] Fold Change Myo” value [1] is reported as 0.3723 Fold Change, the “[Mod] PHH Fold Change” value [2] is reported as 0.6157 Fold Change and the “[Mod] T Fold Change” value [3] is reported as 0.6378 Fold Change.

For CCCCCCCCC(CCCCCC)C(=O)OCCCCCCN(CCCCCCOC(=O)C(CCCCCC)CCCCCCCC)CCn1ccnc1C (stereo not drawn) [Lipid 10a-139], the “[Mod] Fold Change Myo” value [1] was 0.0597 Fold Change, the “[Mod] PHH Fold Change” value [2] was 0.5206 Fold Change and the “[Mod] T Fold Change” value [3] was 0.09732 Fold Change.

In the case of CCCCC/C=C\C/C=C\CCCCCCCC(=O)OCC(COC(=O)CCC(OCCCCCCCC)OCCCCCCCC)COC(=O)OCCCn1ccnc1 (stereo not drawn) [Lipid 10a-140], the “[Mod] Fold Change Myo” value [1] is reported as 0.1601 Fold Change, the “[Mod] PHH Fold Change” value [2] is reported as 0.7154 Fold Change and the “[Mod] T Fold Change” value [3] is reported as 0.3995 Fold Change.

With CCCCC/C=C\C/C=C\CCCCCCCC(=O)OCC(COC(=O)CCC(OCCCCCCCC)OCCCCCCCC)COC(=O)OCCCn1ccnc1C (stereo not drawn) [Lipid 10a-141] the “[Mod] Fold Change Myo” value [1] was 0.04025 Fold Change, the “[Mod] PHH Fold Change” value [2] was 0.547 Fold Change and the “[Mod] T Fold Change” value [3] was 0.03106 Fold Change.

With CCCCCCCCCN(CCCn1ccnc1)C(CCCCCCCCC(=O)OCC(CCCC)CCCCCC)CCCCCCCCC(=O)OCC(CCCC)CCCCCC (stereo not drawn) [Lipid 10a-142] the “[Mod] Fold Change Myo” value [1] was 0.03852 Fold Change, the “[Mod] PHH Fold Change” value [2] was 0.468 Fold Change and the “[Mod] T Fold Change” value [3] was 0.02743 Fold Change.

With CCCCCCCCC(CCCCCC)OCCOC(=O)CCN(CCCn1ccnc1C)CCC(=O)OCCOC(CCCCCC)CCCCCCCC (stereo not drawn) [Lipid 10a-143] the “[Mod] Fold Change Myo” value [1] was 0.03901 Fold Change, the “[Mod] PHH Fold Change” value [2] was 0.4209 Fold Change and the “[Mod] T Fold Change” value [3] was 0.03265 Fold Change.

For CCCCCCCCCN(CCn1ccnc1C)C(CCCCCCCCC(=O)OCC(CCCC)CCCCCC)CCCCCCCCC(=O)OCC(CCCC)CCCCCC (stereo not drawn) [Lipid 10a-145], the “[Mod] Fold Change Myo” value [1] was 0.03927 Fold Change, the “[Mod] PHH Fold Change” value [2] was 0.6359 Fold Change and the “[Mod] T Fold Change” value [3] was 0.0263 Fold Change.

CCCCCCCCCN(CCn1ccnc1)C(CCCCCCCCC(=O)OCC(CCCC)CCCCCC)CCCCCCCCC(=O)OCC(CCCC)CCCCCC (stereo not drawn) [Lipid 10a-146] was tested, and the “[Mod] Fold Change Myo” value [1] was 0.04323 Fold Change, the “[Mod] PHH Fold Change” value [2] was 0.5873 Fold Change and the “[Mod] T Fold Change” value [3] was 0.03465 Fold Change.

CCCCCCCCCN(CCCCn1ccnc1C)C(CCCCCCCCC(=O)OCC(CCCC)CCCCCC)CCCCCCCCC(=O)OCC(CCCC)CCCCCC (stereo not drawn) [Lipid 10a-147] was tested, and the “[Mod] Fold Change Myo” value [1] was 0.04264 Fold Change, the “[Mod] PHH Fold Change” value [2] was 0.5594 Fold Change and the “[Mod] T Fold Change” value [3] was 0.03662 Fold Change.

For CCCCCCCCCN(CCCCn1ccnc1)C(CCCCCCCCC(=O)OCC(CCCC)CCCCCC)CCCCCCCCC(=O)OCC(CCCC)CCCCCC (stereo not drawn) [Lipid 10a-148], the “[Mod] Fold Change Myo” value [1] was 0.03913 Fold Change, the “[Mod] PHH Fold Change” value [2] was 0.7368 Fold Change and the “[Mod] T Fold Change” value [3] was 0.02909 Fold Change.

With CCCCCCCCC(CCCCCC)C(=O)OCCCCCCN(CCCn1ccnc1C)CC(O)CCCCOC(=O)C(CCCCCC)CCCCCCCC (stereo not drawn) [Lipid 10a-149] the “[Mod] Fold Change Myo” value [1] was 0.03919 Fold Change, the “[Mod] PHH Fold Change” value [2] was 0.7118 Fold Change and the “[Mod] T Fold Change” value [3] was 0.02893 Fold Change.

With CCCCCCCCCCCCC(O)CN(CCCCCCCC(=O)OC(CCCCCCCC)CCCCCCCC)CCCn1ccnc1C (stereo not drawn) [Lipid 10a-150] the “[Mod] Fold Change Myo” value [1] was 0.03864 Fold Change, the “[Mod] PHH Fold Change” value [2] was 0.5147 Fold Change and the “[Mod] T Fold Change” value [3] was 0.02705 Fold Change.

Source: US12297285B2 (Orna Therapeutics, Inc., priority 2022, dated 2025)
